In EP3593819A1, “COMPOSITIONS FOR THERAPEUTIC USES CONTAINING 5-HTP AND CARBIDOPA” (Medday Pharmaceuticals, priority 2018, dated 2020):
Converted amounts (≈) assume the structure as drawn. Read-outs that look alike come from different tables or passages of the source.

Legend:
[1] = cited from earlier work
[2] = Second wave of solubility testing with acidified vehicles and combinations; assay type: physicochemical; conditions: 40% (w/v) HP-3-cyclodextrin + 38.4 mg/mL citric acid, pH2.0, compared to similar solution containing only 20% (w/v) HP-3-cyclodextrin
Procedure: Based on the outcome of these solubility tests, a second wave of solubility testing was performed, with acidified vehicles and combinations thereof.
The highest solubility was obtained in 40% (w/v) HP-3-cyclodextrin + 38.4 mg/mL citric acid, pH2.0, for both APIs (Active Pharmaceutical Ingredients). The marginal increase in solubility in this vehicle, compared to similar solution containing only 20% (w/v) HP-3-cyclodextrin is only -20% for 5-HTP and -40% for carbidopa. Therefore, and since dosing of HP-3-cyclodextrin is limited to about 8 - 16 g/day (for max. 14 days, short-term Phase I studies), it was foreseen to use the vehicle containing only 20% HP-b-cyclodextrin as the first choice for dosing safety reasons, i.e.: • for a 600 mg 5-HTP/60 mg carbidopa dose with a 30 mg/mL 5-HTP/3 mg/mL carbidopa solution in solvent A (40% HP-β-CD), 20 mL solution is required, corresponding with an intake of 8 g HP-β-CD, and; • for a 600 mg 5-HTP/60 mg carbidopa dose with a 30 mg/mL 5-HTP/3 mg/mL carbidopa solution in solvent B (20% HP-β-CD), 20 mL solution is required, corresponding with an intake of only 4 g HP-β-CD.

[3] = UV-measured solubility of 5-HTP and carbidopa; assay type: physicochemical
Procedure: The individual solubility of 5-HTP and carbidopa was assessed and compared to the data in the literature.
Table 2. Solubility results

[4] = Screening stress test study on separate reference solutions and a mix solution; assay type: physicochemical
Procedure: Stress studies were performed on the separated reference solutions and a mix solution under heat (60°C for 24 h), and under acidic, basic, or oxidative (H2O2) conditions, and ICH light (700 W/m^2 for 8 h) conditions.

[5] = 0.1N HCl, simulated gastric fluid, 0.1N HCI
[6] = 5% Soluplus in water, aqueous with cosolvent or surfactant or cyclodextrin
[7] = 10% w/v M-β-cyclodextrin in water (Kleptose crysmeb), aqueous with cosolvent or surfactant or cyclodextrin
[8] = 20% w/v HP-β-cyclodextrin in water (Kleptose), aqueous with cosolvent or surfactant or cyclodextrin, 20% w/v HP-β-cydodextrin in water (Kleptose)
[9] = Ethanol, organic solvent or mixture
[10] = Kolliphor RH40 (5% in water), aqueous with cosolvent or surfactant or cyclodextrin
[11] = PEG400, organic solvent or mixture
[12] = Polysorbate 20 (5% in water), aqueous with cosolvent or surfactant or cyclodextrin
[13] = Propylene glycol, organic solvent or mixture
[14] = Sepiclear (5% in water), aqueous with cosolvent or surfactant or cyclodextrin
[15] = Solutol HS15 (5% in water), aqueous with cosolvent or surfactant or cyclodextrin
[16] = Transcutol HP, organic solvent or mixture
[17] = oil or lipid, Labrafac lipophile, accurate measurement not possible due to diverging spectrum
[18] = oil or lipid, Sunflower oil, accurate measurement not possible due to diverging spectrum
[19] = pH 5, aqueous buffer, Phosphate buffer, pH5
[20] = pH 6.8, aqueous buffer, Phosphate buffer, pH6.8
[21] = pH 9, aqueous buffer, Phosphate buffer, pH9
[22] = separate solution, ICH light (700 W/m^2 for 8 h)
[23] = separate solution, acidic conditions, immediate, no further degradation after 24 h
[24] = separate solution, basic medium, after 24 h
[25] = separate solution, heat (60°C for 24 h)
[26] = separate solution, oxidative (H2O2) stress, T0 and T24h

Row | SMILES | solubility ([1]; Water) | marginal increase in solubility [2] [%] | solubility [3, 5] [µg/mL] | solubility [3, 6] [µg/mL] | solubility [3, 7] [µg/mL] | solubility [3, 8] [µg/mL] | solubility [3, 9] [µg/mL] | solubility [3, 10] [µg/mL] | solubility ([3]; Labrasol ALF, oil or lipid) [µg/mL] | solubility [3, 11] [µg/mL] | solubility [3, 12] [µg/mL] | solubility [3, 13] [µg/mL] | solubility [3, 14] [µg/mL] | solubility [3, 15] [µg/mL] | solubility [3, 16] [µg/mL] | solubility [3, 17] [µg/mL] | solubility [3, 18] [µg/mL] | solubility [3, 19] [µg/mL] | solubility [3, 20] [µg/mL] | solubility [3, 21] [µg/mL] | other results
1 | N[C@@H](Cc1c[nH]c2ccc(O)cc12)C(=O)O [5-HTP, (2S)-2-amino-3-(5-hydroxy-1H-indol-3-yl)propanoic acid] | 1 - 10^(1) mg/mL | -20 | 29400 (≈ 133 mM) | 12400 (≈ 56.3 mM) | 13500 (≈ 61.3 mM) | 17000 (≈ 77.2 mM) | 5100 (≈ 23.2 mM) | 9500 (≈ 43.1 mM) | 4800 (≈ 21.8 mM) | 2300 (≈ 10.4 mM) | 9400 (≈ 42.7 mM) | 35400 (≈ 161 mM) | 14500 (≈ 65.8 mM) | 9000 (≈ 40.9 mM) | 13700 (≈ 62.2 mM) | < 10000 | < 10000 | 8400 (≈ 38.1 mM) | 8900 (≈ 40.4 mM) | 9300 (≈ 42.2 mM) | degradation ([4]; mix solution of 5-HTP and carbidopa, all stress conditions): mainly light and acidic stress influenced the degradation; degradation [4, 22]: about 15%; degradation [4, 23]: not sensitive; degradation [4, 24]: about 15%; degradation [4, 25]: not sensitive; degradation [4, 26]: not sensitive
2 | C[C@@](Cc1ccc(O)c(O)c1)(NN)C(=O)O [Carbidopa, (2S)-3-(3,4-dihydroxyphenyl)-2-hydrazinyl-2-methylpropanoic acid] | 1 - 10 ^(2) mg/mL | -40 | 11800 (≈ 52.2 mM) | 12900 (≈ 57 mM) | 2800 (≈ 12.4 mM) | 3100 (≈ 13.7 mM) | 70 (≈ 0.309 mM) | 1500 (≈ 6.63 mM) | 12800 (≈ 56.6 mM) | 1500 (≈ 6.63 mM) | 1400 (≈ 6.19 mM) | 15000 (≈ 66.3 mM) | 3100 (≈ 13.7 mM) | 1400 (≈ 6.19 mM) | 600 (≈ 2.65 mM) | < 10000 | < 10000 | 1500 (≈ 6.63 mM) | 2100 (≈ 9.28 mM) | 4700 (≈ 20.8 mM) | solubility ([1]; 3N HCI): 100 - 1000 ^(3) mg/mL; solubility ([1]; Acetone): < 0.1 ^(3) mg/mL; solubility ([1]; Chloroform): < 0.1 ^(2) mg/mL; solubility ([1]; Ethanol): 0.1 - 1 ^(2) mg/mL; solubility ([1]; Ether): < 0.1 ^(3) mg/mL; solubility ([1]; Methanol): 1 - 10 ^(3) mg/mL; solubility ([1]; Methylene chloride): < 0.1 ^(3) mg/mL; degradation [4, 22]: about 88%; degradation [4, 23]: more than 20%; degradation [4, 24]: about 30%; degradation [4, 25]: 90%; degradation [4, 26]: did not influence; stability in solution ([4]; stress studies, overall): very unstable in solution and is quickly degraded
